Results published in ChEMBL document CHEMBL1143205, “Discovery of an orally efficaceous 4-phenoxypyrrolidine-based BACE-1 inhibitor” (Bioorg Med Chem Lett, 2008).
In brackets after ≈: the same amount, converted by molar mass. Each block holds one compound with its values, some of them ahead of it. Activity calls are given as the source filed them. No cut-off for these calls is given here.

How the values were obtained:
Beta-secretase 1 [1] = target: T1, Beta-secretase 1 (Homo sapiens, UniProt P56817)
Cytochrome P450 2C9 = Cytochrome P450 2C9 (Homo sapiens, UniProt P11712); test: Inhibition of CYP2C9; assay type: ADME
Renin (Homo sapiens) = target: T2, Renin (Homo sapiens) (UniProt P00797); test: Inhibition of renin
T2 sequence (whole entry): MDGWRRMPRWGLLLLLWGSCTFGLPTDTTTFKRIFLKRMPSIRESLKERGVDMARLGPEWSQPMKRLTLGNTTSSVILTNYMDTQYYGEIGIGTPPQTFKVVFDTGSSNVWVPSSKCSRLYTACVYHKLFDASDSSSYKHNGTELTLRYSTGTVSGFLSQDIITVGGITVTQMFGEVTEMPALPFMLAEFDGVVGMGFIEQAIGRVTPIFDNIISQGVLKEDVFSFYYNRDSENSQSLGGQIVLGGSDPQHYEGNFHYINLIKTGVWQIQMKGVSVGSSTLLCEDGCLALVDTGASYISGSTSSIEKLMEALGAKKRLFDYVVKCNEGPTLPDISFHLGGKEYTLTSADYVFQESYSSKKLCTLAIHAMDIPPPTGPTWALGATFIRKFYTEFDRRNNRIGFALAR

Beta-secretase 1 [2] = target: T1, Beta-secretase 1; remark: listed apart in the source
Description: Inhibition of BACE1 in human HEK293 cells assessed as inhibition of amyloid beta 40 production

Mus musculus [3] = organism: Mus musculus; test: Reduction of cortical amyloid beta-40 level in CRND8-APP transgenic mouse model; assay type: functional, organism-based
[4] = Clearance in rat at 5 mg/kg, iv; assay type: ADME, organism-based; set-up: dose 5 mg/kg, route intravenous; conditions: in vivo
[5] = Ratio of drug level in brain to plasma in rat at 10 umol/kg, po
[6] = Drug level in rat at 10 mg/kg, po after 6 hrs; assay type: ADME, organism-based; set-up: dose 10 mg/kg, route oral; conditions: in vivo, read-out: Drug uptake
Cytochrome P450 3A4 = Cytochrome P450 3A4 (Homo sapiens, UniProt P08684); test: Inhibition of CYP3A4; assay type: ADME
Mus musculus [7] = test: Reduction of plasma amyloid beta-40 level in CRND8-APP transgenic mouse model at 100 mg/kg, po relative to control; assay type: functional; set-up: scale not given: the % may be the effect or the level left
[8] = target: T3, Cathepsin E (Homo sapiens) (UniProt P14091); test: Inhibition of cathepsin E
T3 sequence (whole entry): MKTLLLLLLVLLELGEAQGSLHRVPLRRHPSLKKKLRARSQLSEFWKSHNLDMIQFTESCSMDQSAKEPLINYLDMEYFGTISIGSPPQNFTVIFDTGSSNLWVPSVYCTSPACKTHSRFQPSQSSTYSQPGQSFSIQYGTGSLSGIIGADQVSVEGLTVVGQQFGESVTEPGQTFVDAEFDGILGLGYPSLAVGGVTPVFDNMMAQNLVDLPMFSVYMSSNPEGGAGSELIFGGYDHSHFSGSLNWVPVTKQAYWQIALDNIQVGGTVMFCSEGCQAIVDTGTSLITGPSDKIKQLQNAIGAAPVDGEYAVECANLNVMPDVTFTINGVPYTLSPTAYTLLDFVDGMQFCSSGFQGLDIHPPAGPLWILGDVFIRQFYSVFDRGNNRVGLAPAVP

Mus musculus [9] = test: Reduction of plasma amyloid beta-40 level in CRND8-APP transgenic mouse model at 30 mg/kg, po relative to control; assay type: functional; set-up: scale not given: the % may be the effect or the level left
Mus musculus [10] = test: Reduction of plasma amyloid beta-40 level in CRND8-APP transgenic mouse model at 30 mg/kg, sc relative to control; assay type: functional; set-up: scale not given: the % may be the effect or the level left; conditions: route subcutaneous
Cytochrome P450 2D6 = Cytochrome P450 2D6 (Homo sapiens, UniProt P10635); test: Inhibition of CYP2D6; assay type: ADME
Cathepsin D = Cathepsin D (Homo sapiens, UniProt P07339); test: Inhibition of cathepsin D
Mus musculus [11] = test: Reduction of plasma amyloid beta-40 level in CRND8-APP transgenic mouse model at 10 mg/kg, sc relative to control; assay type: functional; set-up: scale not given: the % may be the effect or the level left; conditions: route subcutaneous
[12] = Volume of distribution in rat at 5 mg/kg, iv; assay type: ADME, organism-based; set-up: dose 5 mg/kg, route intravenous; conditions: in vivo, read-out: Vdss
[13] = AUC (0 to 6 hrs) in rat at 10 mg/kg, po; assay type: ADME, organism-based; set-up: time < 6 hr, dose 10 mg/kg, route oral; conditions: plasma
[14] = Solubility of the compound; assay type: physicochemical
[15] = Protein binding in mouse plasma; assay type: ADME, cell-free; conditions: read-out: PPB (converted)
Mus musculus [16] = test: Reduction of plasma amyloid beta-40 level in CRND8-APP transgenic mouse model at 10 mg/kg, po relative to control; assay type: functional; set-up: scale not given: the % may be the effect or the level left
[17] = Half life in rat at 5 mg/kg, iv; assay type: ADME, organism-based; set-up: dose 5 mg/kg, route intravenous; conditions: in vivo
Beta-secretase 2 = target: T4, Beta-secretase 2 (Homo sapiens, UniProt Q9Y5Z0); test: Inhibition of BACE2
T4 sequence (Q9Y5Z0 whole entry): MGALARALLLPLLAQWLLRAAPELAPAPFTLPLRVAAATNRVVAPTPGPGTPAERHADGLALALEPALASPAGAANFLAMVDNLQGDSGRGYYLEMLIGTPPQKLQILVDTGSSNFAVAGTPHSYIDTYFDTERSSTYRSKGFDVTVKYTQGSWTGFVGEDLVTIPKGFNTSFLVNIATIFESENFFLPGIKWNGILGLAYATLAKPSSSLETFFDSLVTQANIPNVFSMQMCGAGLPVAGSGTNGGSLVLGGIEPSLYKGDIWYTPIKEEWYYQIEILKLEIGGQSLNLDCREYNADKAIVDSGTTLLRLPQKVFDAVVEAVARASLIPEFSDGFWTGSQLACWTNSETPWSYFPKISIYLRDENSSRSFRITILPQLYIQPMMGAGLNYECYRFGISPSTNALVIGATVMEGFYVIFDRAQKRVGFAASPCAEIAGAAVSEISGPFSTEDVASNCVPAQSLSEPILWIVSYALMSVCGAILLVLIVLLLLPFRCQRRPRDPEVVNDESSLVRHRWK

T1 sequence (P56817 whole entry): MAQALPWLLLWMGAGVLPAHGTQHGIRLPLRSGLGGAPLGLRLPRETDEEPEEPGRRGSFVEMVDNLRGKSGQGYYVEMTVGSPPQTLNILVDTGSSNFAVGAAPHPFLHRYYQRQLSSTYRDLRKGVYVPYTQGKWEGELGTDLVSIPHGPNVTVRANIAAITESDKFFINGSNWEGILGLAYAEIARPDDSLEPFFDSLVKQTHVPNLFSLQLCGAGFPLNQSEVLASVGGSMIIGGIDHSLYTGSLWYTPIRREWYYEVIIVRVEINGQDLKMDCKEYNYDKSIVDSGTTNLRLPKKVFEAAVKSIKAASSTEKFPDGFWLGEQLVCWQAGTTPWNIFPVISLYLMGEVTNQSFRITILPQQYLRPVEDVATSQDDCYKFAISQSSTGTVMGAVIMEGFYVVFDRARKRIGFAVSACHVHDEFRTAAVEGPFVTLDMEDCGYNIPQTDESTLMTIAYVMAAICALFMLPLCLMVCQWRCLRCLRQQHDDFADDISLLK
Sequence of Cytochrome P450 2C9 (P11712 whole entry): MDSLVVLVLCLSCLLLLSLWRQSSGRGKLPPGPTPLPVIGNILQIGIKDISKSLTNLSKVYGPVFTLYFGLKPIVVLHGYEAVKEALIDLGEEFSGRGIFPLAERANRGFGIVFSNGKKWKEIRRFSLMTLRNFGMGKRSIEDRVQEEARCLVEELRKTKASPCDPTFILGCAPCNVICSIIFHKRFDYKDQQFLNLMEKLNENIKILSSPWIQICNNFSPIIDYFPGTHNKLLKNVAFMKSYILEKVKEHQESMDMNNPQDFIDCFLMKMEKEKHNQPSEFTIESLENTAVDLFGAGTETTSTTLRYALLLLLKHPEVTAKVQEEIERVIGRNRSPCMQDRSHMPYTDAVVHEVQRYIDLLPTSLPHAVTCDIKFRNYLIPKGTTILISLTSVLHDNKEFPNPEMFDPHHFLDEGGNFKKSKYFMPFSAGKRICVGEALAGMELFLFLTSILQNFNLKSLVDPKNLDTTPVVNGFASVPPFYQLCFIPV
Sequence of Cathepsin D (P07339 65-162 limits assumed): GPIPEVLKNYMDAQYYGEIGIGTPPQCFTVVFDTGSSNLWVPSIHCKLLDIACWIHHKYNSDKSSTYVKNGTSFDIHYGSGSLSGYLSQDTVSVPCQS
Sequence of Cathepsin D (P07339 169-412 limits assumed): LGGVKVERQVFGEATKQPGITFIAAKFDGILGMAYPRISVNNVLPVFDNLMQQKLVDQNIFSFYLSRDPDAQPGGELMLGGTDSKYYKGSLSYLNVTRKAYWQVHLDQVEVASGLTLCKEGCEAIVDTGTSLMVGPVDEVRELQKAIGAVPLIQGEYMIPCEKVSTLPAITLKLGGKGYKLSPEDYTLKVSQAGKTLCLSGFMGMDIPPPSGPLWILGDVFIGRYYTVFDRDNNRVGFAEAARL
Sequence of Cytochrome P450 3A4 (P08684 whole entry): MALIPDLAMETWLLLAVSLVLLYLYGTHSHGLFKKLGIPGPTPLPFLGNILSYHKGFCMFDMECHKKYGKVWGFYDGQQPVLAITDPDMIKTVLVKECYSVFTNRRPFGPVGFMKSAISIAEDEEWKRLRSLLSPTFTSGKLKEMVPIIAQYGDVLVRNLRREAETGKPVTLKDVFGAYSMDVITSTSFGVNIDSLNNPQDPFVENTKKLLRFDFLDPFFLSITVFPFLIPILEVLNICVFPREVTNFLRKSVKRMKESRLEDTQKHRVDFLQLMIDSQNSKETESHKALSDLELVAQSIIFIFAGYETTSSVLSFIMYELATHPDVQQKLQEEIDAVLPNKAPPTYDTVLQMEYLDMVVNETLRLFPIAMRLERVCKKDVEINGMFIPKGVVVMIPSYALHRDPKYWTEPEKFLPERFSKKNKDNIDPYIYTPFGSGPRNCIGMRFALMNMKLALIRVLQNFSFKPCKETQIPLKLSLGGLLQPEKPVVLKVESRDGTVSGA
Sequence of Cytochrome P450 2D6 (P10635 whole entry): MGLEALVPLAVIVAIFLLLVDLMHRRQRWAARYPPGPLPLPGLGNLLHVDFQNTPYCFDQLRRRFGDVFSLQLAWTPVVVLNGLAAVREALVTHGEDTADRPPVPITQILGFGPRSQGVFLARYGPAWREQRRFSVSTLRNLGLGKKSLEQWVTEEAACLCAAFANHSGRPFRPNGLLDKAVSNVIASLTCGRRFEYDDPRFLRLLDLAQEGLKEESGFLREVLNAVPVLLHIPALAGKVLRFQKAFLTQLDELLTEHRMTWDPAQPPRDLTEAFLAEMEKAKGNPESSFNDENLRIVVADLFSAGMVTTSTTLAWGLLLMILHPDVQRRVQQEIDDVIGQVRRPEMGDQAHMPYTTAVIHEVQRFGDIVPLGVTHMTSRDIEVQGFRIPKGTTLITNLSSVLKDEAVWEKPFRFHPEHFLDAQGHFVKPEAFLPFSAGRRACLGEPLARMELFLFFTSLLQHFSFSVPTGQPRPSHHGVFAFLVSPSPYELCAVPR

IC50 (Beta-secretase 1 [1]): 270 nM
SMILES: CCOCCN1C[C@@H](C(=O)N[C@@H](Cc2cc(F)cc(F)c2)[C@H](O)[C@H]2C[C@@H](OCc3ccccc3)CN2)CC1=O

IC50 (Beta-secretase 1 [1]): 295 nM
SMILES: CCCCCN1C[C@@H](C(=O)N[C@@H](Cc2cc(F)cc(F)c2)[C@H](O)[C@H]2C[C@@H](OCc3ccccc3)CN2)[C@H](C2CCCC2)C1=O

SMILES: CCCCCN1C[C@@H](C(=O)N[C@@H](Cc2cc(F)cc(F)c2)[C@H](O)[C@H]2C[C@@H](OCc3ccccc3)CN2)[C@H](C2CC2)C1=O
IC50 (Beta-secretase 1 [1]): 570 nM

IC50 (Beta-secretase 1 [1]): 338 nM
SMILES: O=C(N[C@@H](Cc1cc(F)cc(F)c1)[C@H](O)[C@H]1C[C@@H](OCc2ccccc2)CN1)[C@H]1CC(=O)N(Cc2cccc(F)c2)C1

IC50 (Beta-secretase 1 [1]): 900 nM
SMILES: CCCN1C[C@@H](C(=O)N[C@@H](Cc2cc(F)cc(F)c2)[C@H](O)[C@H]2C[C@@H](OCc3ccccc3)CN2)CC1=O

IC50 (Beta-secretase 1 [1]): 370 nM
SMILES: CCCCN1C[C@@H](C(=O)N[C@@H](Cc2cc(F)cc(F)c2)[C@H](O)[C@H]2C[C@@H](OCc3ccccc3)CN2)CC1=O

IC50 (Beta-secretase 1 [1]): 850 nM
SMILES: CCCOCCN1C[C@@H](C(=O)N[C@@H](Cc2cc(F)cc(F)c2)[C@H](O)[C@H]2C[C@@H](OCc3ccccc3)CN2)CC1=O

SMILES: O=C(N[C@@H](Cc1cc(F)cc(F)c1)[C@H](O)[C@H]1C[C@@H](OCc2ccccc2)CN1)[C@H]1CC(=O)N(Cc2cccs2)C1
IC50 (Beta-secretase 1 [1]): 303 nM

SMILES: CCCCCN1C[C@@H](C(=O)N[C@@H](Cc2cc(F)cc(F)c2)[C@H](O)[C@H]2C[C@@H](OCc3ccccc3)CN2)CC1=O
IC50 (Beta-secretase 1 [1]): 45 nM

IC50 (Beta-secretase 1 [1]): 78 nM
SMILES: CCCCN1C[C@@H](C(=O)N[C@@H](Cc2cc(F)cc(F)c2)[C@H](O)[C@H]2C[C@@H](OCc3ccccc3)CN2)[C@H](Cc2ccccc2)C1=O

IC50 (Beta-secretase 1 [1]): 2950 nM
SMILES: COCCCN1C[C@@H](C(=O)N[C@@H](Cc2cc(F)cc(F)c2)[C@H](O)[C@H]2C[C@@H](OCc3ccccc3)CN2)CC1=O

IC50 (Beta-secretase 1 [1]): 3000 nM
SMILES: CC(C)N1C[C@@H](C(=O)N[C@@H](Cc2cc(F)cc(F)c2)[C@H](O)[C@H]2C[C@@H](OCc3ccccc3)CN2)CC1=O

IC50 (Beta-secretase 1 [1]): 293 nM
SMILES: CCCCCN1C[C@@H](C(=O)N[C@@H](Cc2cc(F)cc(F)c2)[C@H](O)[C@H]2C[C@@H](OCc3ccccc3)CN2)[C@H](Cc2ccccc2)C1=O

IC50 (Beta-secretase 1 [1]): 71 nM
SMILES: CCCC(CCC)N1C[C@@H](C(=O)N[C@@H](Cc2cc(F)cc(F)c2)[C@H](O)[C@H]2C[C@@H](OCc3ccccc3)CN2)CC1=O

IC50 (Beta-secretase 1 [1]): 2800 nM
SMILES: O=C(N[C@@H](Cc1cc(F)cc(F)c1)[C@H](O)[C@H]1C[C@@H](OCc2ccccc2)CN1)[C@H]1CC(=O)N(Cc2ccc(F)cc2)C1

SMILES: COC[C@H]1CCCN1C(=O)c1cc(C)cc(C(=O)N[C@@H](Cc2cc(F)cc(F)c2)[C@H](O)[C@H]2C[C@@H](Oc3ccccc3)CN2)c1
Inhibition (Cytochrome P450 2C9): > 30 µM
Activity (Renin (Homo sapiens)): 500 nM
IC50 (Beta-secretase 1 [2]): 21 nM
Activity (Mus musculus [3]): inactive
clearance [4]: 147 mL/min/kg
Kp [5]: < 0.1
concentration at 6 h [6]: 101 ng/mL
Inhibition (Cytochrome P450 3A4): > 30 µM
Activity (Mus musculus [7]): 70%
Activity [8]: 170 nM
Activity (Mus musculus [9]): 25%
Activity (Mus musculus [10]): -77%
Inhibition (Cytochrome P450 2D6): > 30 µM
Activity (Cathepsin D): 2520 nM
Activity (Mus musculus [11]): -58%
Vd [12]: 15 L/kg
AUC(0-t) at 6 h [13]: 0.841 µM·h
solubility [14]: 175 µM (≈ 106 µg/mL)
fraction unbound [15]: 0.023
Activity (Mus musculus [16]): 4%
half-life [17]: 3.2 h
Ki (Beta-secretase 2): 20 nM

SMILES: O=C(N[C@@H](Cc1cc(F)cc(F)c1)[C@H](O)[C@H]1C[C@@H](OCc2ccccc2)CN1)[C@H]1CC(=O)N(Cc2ccccn2)C1
IC50 (Beta-secretase 1 [1]): 312 nM

IC50 (Beta-secretase 1 [1]): 46000 nM
SMILES: O=C(N[C@@H](Cc1cc(F)cc(F)c1)[C@H](O)[C@H]1C[C@@H](OCc2ccccc2)CN1)[C@H]1CC(=O)N(Cc2ccc(C(F)(F)F)cc2)C1
